Experimental data reported in patent publication US20240409585A1, “MACROCYCLIC IMMUNOMODULATORS” (priority 2021, published 2024).
Numbered stars: 1 amine (or outer) side, 2 acyl side, 3 side chain; on linkers, the order of the positions; unused ones are H or OH. Bridge positions count the residues as written; N and C are the ends. Square brackets hold non-standard residues; d marks the D form. Peptide text beside a SMILES is read from it. * marks the point of attachment. ξ: configuration not given here. X25 = N#CCCc1ccc(-c2ccc(C[C@H](N[*:1])C(=O)[*:2])cc2)cc1; Phe(4-COOH) = N[C@@H](Cc1ccc(C(=O)O)cc1)C(=O)O; Bip = N[C@@H](Cc1ccc(-c2ccccc2)cc1)C(=O)O; Phe(3-CN) = N#Cc1cccc(C[C@H](N)C(=O)O)c1; Phe(3-Me) = Cc1cccc(C[C@H](N)C(=O)O)c1; Bta = N[C@@H](Cc1csc2ccccc12)C(=O)O; Val(3-OH) = CC(C)(O)[C@H](N)C(=O)O; 4Pal = N[C@@H](Cc1ccncc1)C(=O)O; Cha = N[C@@H](CC1CCCCC1)C(=O)O; Cit = NC(=O)NCCC[C@H](N)C(=O)O; Ile(3ξ) = CCC(C)[C@H](N)C(=O)O; Thr(3ξ) = CC(O)[C@H](N)C(=O)O; Dap(Me) = CNC[C@H](N)C(=O)O; Carboxymethyl = O=C(O)C*; NMeA = CN[C@@H](C)C(=O)O; dAbu = CC[C@@H](N)C(=O)O; dNMeA = CN[C@H](C)C(=O)O; Dab = NCC[C@H](N)C(=O)O; Dap = NC[C@H](N)C(=O)O; ξC = NC(CS)C(=O)O; Acm = CC(=O)NC*

Target: T1, PE-labeled human PD-L1-Ig binding to Jurkat cell line over-expressing human PD-1 (Jurkat-PD-1) (Homo sapiens, UniProt Q15116)
T1 construct: expressed in transfected cells; host or cells: Jurkat
T1 sequence (Q15116 25-288): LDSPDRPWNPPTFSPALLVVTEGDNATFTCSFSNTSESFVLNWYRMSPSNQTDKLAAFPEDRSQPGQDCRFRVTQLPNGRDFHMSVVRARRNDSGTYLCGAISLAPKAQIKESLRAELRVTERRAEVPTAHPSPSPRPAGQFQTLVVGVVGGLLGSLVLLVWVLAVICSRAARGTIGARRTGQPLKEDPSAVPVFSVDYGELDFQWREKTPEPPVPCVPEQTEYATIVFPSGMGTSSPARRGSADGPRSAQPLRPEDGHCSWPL
Test: Jurkat-PD-1 Cell Binding High-Content Screening Assay (CBA): Method 1
Settings: Jurkat-hPD-1 cells, PE-labeled PD-L1-Ig 20 nM final; read-out: Jurkat HPDL1 PD1 IC50 (uM) (Method 1)

SMILES	IC50
CC(C)C[C@@H]1NC(=O)[C@H](Cc2c[nH]c3ccccc23)NC(=O)[C@H](CC(=O)O)NC(=O)[C@H](Cc2ccc(O)cc2)NC(=O)[C@H](Cc2ccccc2)NC(=O)CSC[C@@H](C(=O)NCC(N)=O)NC(=O)[C@H](CO)NC(=O)[C@H](C(C)C)NC(=O)[C@H](CC(C)C)NC(=O)[C@H](CC(N)=O)NC(=O)CNC(=O)[C@@H](C)N(C)C(=O)[C@H](C(C)C)NC(=O)[C@H](Cc2ccc(-c3ccccc3)cc2)NC1=O [Compound 1721] ({CH2CO}-FYDWL[Bip]V[dNMeA]GNLVSCG-NH2; thioether N-14)	0.24 µM
CC(C)C[C@H]1NC(=O)[C@H](C)N(C)C(=O)[C@H](C(C)C)NC(=O)[C@H](Cc2ccc(-c3ccccc3)cc2)NC(=O)[C@H](C(C)C)NC(=O)[C@H](Cc2c[nH]c3ccccc23)NC(=O)[C@H](CC(=O)O)NC(=O)[C@H](Cc2ccncc2)NC(=O)[C@H](Cc2ccc(OCC(=O)O)cc2)NC(=O)CSC[C@@H](C(N)=O)NC(=O)[C@H](CCCCN)NC(=O)[C@H](C(C)C)NC(=O)[C@H](CC2CCCCC2)NC(=O)[C@H](CC(N)=O)NC1=O [Compound 2246] ({CH2CO}-Y(Carboxymethyl)[4Pal]DWV[Bip]V[NMeA][dL]N[Cha]VKC-NH2; thioether N-14)	0.03 µM
CC(C)C[C@@H]1NC(=O)[C@H](CCN)NC(=O)[C@@H](CC(C)C)NC(=O)[C@H](C)N(C)C(=O)[C@H](Cc2cnc[nH]2)NC(=O)[C@H](Cc2ccc(-c3ccccc3)cc2)NC(=O)[C@H](C(C)C)NC(=O)[C@H](Cc2c[nH]c3ccccc23)NC(=O)[C@H](CC(=O)O)NC(=O)[C@H](Cc2ccc(C(=O)O)cc2)NC(=O)[C@H](CC(N)=O)NC(=O)CSC[C@@H](C(=O)N[C@@H](C)C(N)=O)NC(=O)[C@H]([C@@H](C)O)NC(=O)[C@H](C(C)C)NC1=O [Compound 1383] ({CH2CO}-N[Phe(4-COOH)]DWV[Bip]H[NMeA][dL][Dab]LVTCA-NH2; thioether N-14)	0.06 µM
CC[C@H](C)[C@@H]1NC(=O)[C@H](Cc2ccc(-c3ccccc3)cc2)NC(=O)[C@H](C(C)C)NC(=O)[C@H](Cc2cccc(C)c2)NC(=O)[C@H](CC(=O)O)NC(=O)[C@H](Cc2ccncc2)NC(=O)[C@H](CN)NC(=O)CSC[C@@H](C(=O)N[C@@H](C)C(N)=O)NC(=O)[C@H]([C@@H](C)O)NC(=O)[C@H](C(C)C)NC(=O)[C@H](CC(C)C)NC(=O)[C@H](CCN)NC(=O)[C@@H](CC(C)C)NC(=O)[C@H](C)N(C)C1=O [Compound 1544] ({CH2CO}-[Dap][4Pal]D[Phe(3-Me)]V[Bip]I[NMeA][dL][Dab]LVTCA-NH2; thioether N-14)	0.01 µM
CC(C)C[C@H]1NC(=O)[C@H](C)N(C)C(=O)[C@H](C(C)C)NC(=O)[C@H](Cc2ccc(-c3ccccc3)cc2)NC(=O)[C@H](C(C)C)NC(=O)[C@H](Cc2c[nH]c3ccccc23)NC(=O)[C@H](CC(=O)O)NC(=O)[C@H](Cc2ccc(O)cc2)NC(=O)[C@H](CN)NC(=O)CSC[C@@H](C(=O)N[C@@H](C)C(N)=O)NC(=O)[C@H]([C@@H](C)O)NC(=O)[C@H](C(C)C)NC(=O)[C@H](CC2CCCCC2)NC(=O)[C@H](CCCNC(=N)N)NC1=O [Compound 1485] ({CH2CO}-[Dap]YDWV[Bip]V[NMeA][dL]R[Cha]VTCA-NH2; thioether N-14)	0.39 µM
CC(C)C[C@@H]1NC(=O)CSC[C@@H](C(=O)N[C@@H](C)C(N)=O)NC(=O)[C@H](CO)NC(=O)[C@H](C(C)C)NC(=O)[C@H](CC(C)C)NC(=O)[C@H](CCCNC(=N)N)NC(=O)[C@H](Cc2csc3ccccc23)NC(=O)[C@H](C)N(C)C(=O)[C@H](CCCNC(=N)N)NC(=O)[C@H](Cc2ccc(-c3ccccc3)cc2)NC(=O)[C@H](C(C)C)NC(=O)[C@H](Cc2c[nH]c3ccccc23)NC(=O)[C@H](CC(=O)O)NC(=O)[C@H](Cc2ccc(O)cc2)NC1=O [Compound 1041] ({CH2CO}-LYDWV[Bip]R[NMeA][Bta]RLVSCA-NH2; thioether N-14)	0.31 µM
CC(C)C[C@@H]1NC(=O)[C@H](CCN)NC(=O)[C@@H](CC(C)C)NC(=O)[C@H](C)N(C)C(=O)[C@H](Cc2cnc[nH]2)NC(=O)[C@H](Cc2ccc(-c3ccccc3)cc2)NC(=O)[C@H](C(C)C)NC(=O)[C@H](Cc2c[nH]c3ccccc23)NC(=O)[C@H](CC(=O)O)NC(=O)[C@H](Cc2cccc(C#N)c2)NC(=O)[C@H](CC(N)=O)NC(=O)CSC[C@@H](C(=O)N[C@@H](C)C(N)=O)NC(=O)[C@H]([C@@H](C)O)NC(=O)[C@H](C(C)C)NC1=O [Compound 1375] ({CH2CO}-N[Phe(3-CN)]DWV[Bip]H[NMeA][dL][Dab]LVTCA-NH2; thioether N-14)	0.05 µM
CC(C)C[C@@H]1NC(=O)[C@H](CCN)NC(=O)[C@@H](CC(C)C)NC(=O)[C@H](C)N(C)C(=O)[C@H](CCC(=O)O)NC(=O)[C@H](Cc2ccc(-c3ccccc3)cc2)NC(=O)[C@H](C(C)C)NC(=O)[C@H](Cc2c[nH]c3ccccc23)NC(=O)[C@H](CC(=O)O)NC(=O)[C@H](Cc2ccc(O)cc2)NC(=O)[C@H](CC(N)=O)NC(=O)CSC[C@@H](C(=O)N[C@@H](C)C(N)=O)NC(=O)[C@H](CO)NC(=O)[C@H](C(C)C)NC1=O [Compound 1248] ({CH2CO}-NYDWV[Bip]E[NMeA][dL][Dab]LVSCA-NH2; thioether N-14)	0.07 µM
CC[C@H]1NC(=O)[C@H](C)N(C)C(=O)[C@H](C(C)C)NC(=O)[C@H](Cc2ccc(-c3ccccc3)cc2)NC(=O)[C@H](CC(C)C)NC(=O)[C@H](Cc2c[nH]c3ccccc23)NC(=O)[C@H](CC(=O)O)NC(=O)[C@H](Cc2ccc(O)cc2)NC(=O)[C@H](Cc2ccccc2)NC(=O)CSC[C@@H](C(=O)N[C@@H](C)C(N)=O)NC(=O)[C@H](CO)NC(=O)[C@H](C(C)C)NC(=O)[C@H](CC(C)C)NC(=O)[C@H](CC(N)=O)NC1=O [Compound 1763] ({CH2CO}-FYDWL[Bip]V[NMeA][dAbu]NLVSCA-NH2; thioether N-14)	0.04 µM
CC(=O)NCSC[C@@H]1NC(=O)[C@H](CC(C)C)NC(=O)[C@H](CC(N)=O)NC(=O)[C@@H](CC(C)C)NC(=O)[C@H](C)N(C)C(=O)[C@H](C(C)C)NC(=O)[C@H](Cc2ccc(-c3ccccc3)cc2)NC(=O)[C@H](CSCNC(C)=O)NC(=O)[C@H](Cc2cccc(C)c2)NC(=O)[C@H](CC(=O)O)NC(=O)[C@H](Cc2ccncc2)NC(=O)[C@H](Cc2ccc(OCC(=O)O)cc2)NC(=O)CSCC(C(=O)NCC(N)=O)NC(=O)[C@H](CO)NC1=O (stereo partly drawn) [Compound 1887] ({CH2CO}-Y(Carboxymethyl)[4Pal]D[Phe(3-Me)]C(Acm)[Bip]V[NMeA][dL]NLC(Acm)S[ξC]G-NH2; thioether N-14)	0.25 µM
CC(C)C[C@@H]1NC(=O)[C@H](Cc2c[nH]c3ccccc23)NC(=O)[C@H](CC(=O)O)NC(=O)[C@H](Cc2ccc(O)cc2)NC(=O)[C@H](Cc2ccccc2)NC(=O)CSC[C@@H](C(=O)N[C@@H](C)C(N)=O)NC(=O)[C@H](CO)NC(=O)[C@H](C(C)C)NC(=O)[C@H](CC(C)C)NC(=O)[C@H](CC(N)=O)NC(=O)[C@@H](C)NC(=O)[C@H](C)N(C)C(=O)[C@H](C(C)C)NC(=O)[C@H](Cc2ccc(-c3ccccc3)cc2)NC1=O [Compound 1727] ({CH2CO}-FYDWL[Bip]V[NMeA][dA]NLVSCA-NH2; thioether N-14)	0.01 µM
CNC[C@@H]1NC(=O)[C@@H](CC(C)C)NC(=O)[C@H](C)N(C)C(=O)[C@H](CCCNC(N)=O)NC(=O)[C@H](Cc2ccc(-c3ccccc3)cc2)NC(=O)[C@H](C(C)C)NC(=O)[C@H](Cc2c[nH]c3ccccc23)NC(=O)[C@H](CC(=O)O)NC(=O)[C@H](Cc2ccc(O)cc2)NC(=O)[C@H](CC(N)=O)NC(=O)CSC[C@@H](C(=O)N[C@@H](C)C(N)=O)NC(=O)[C@H](C(C)O)NC(=O)[C@H](C(C)C)NC(=O)[C@H](CC(C)C)NC1=O (stereo partly drawn) [Compound 2039] ({CH2CO}-NYDWV[Bip][Cit][NMeA][dL][Dap(Me)]LV[Thr(3ξ)]CA-NH2; thioether N-14)	0.08 µM
CCC(C)[C@@H]1NC(=O)[C@H](Cc2ccc(-c3ccccc3)cc2)NC(=O)[C@H](C(C)C)NC(=O)[C@H](Cc2c[nH]c3ccccc23)NC(=O)[C@H](CC(=O)O)NC(=O)[C@H](Cc2ccc(O)cc2)NC(=O)[C@H](Cc2ccncc2)NC(=O)CSCC(C(=O)N[C@@H](CCN)C(=O)O)NC(=O)[C@H](C(C)O)NC(=O)[C@H](C(C)C)NC(=O)[C@H](CC2CCCCC2)NC(=O)[C@H](CC(N)=O)NC(=O)[C@@H](CC(C)C)NC(=O)[C@H](C)N(C)C1=O (stereo partly drawn) [Compound 2213] ({CH2CO}-[4Pal]YDWV[Bip][Ile(3ξ)][NMeA][dL]N[Cha]V[Thr(3ξ)][ξC][Dab]-OH; thioether N-14)	0.02 µM
CC[C@H](C)[C@@H]1NC(=O)[C@H](Cc2ccc(-c3ccccc3)cc2)NC(=O)[C@H](C(C)(C)O)NC(=O)[C@H](Cc2cccc(C)c2)NC(=O)[C@H](CC(=O)O)NC(=O)[C@H](Cc2ccc(O)cc2)NC(=O)[C@H](CC(N)=O)NC(=O)CSC[C@@H](C(=O)N[C@H](C)C(N)=O)NC(=O)[C@H](CCC(=O)O)NC(=O)[C@H](C(C)C)NC(=O)[C@H](CC2CCCCC2)NC(=O)[C@H](CCN)NC(=O)[C@@H](CC(C)C)NC(=O)[C@H](C)N(C)C1=O [Compound 1698] ({CH2CO}-NYD[Phe(3-Me)][Val(3-OH)][Bip]I[NMeA][dL][Dab][Cha]VEC[dA]-NH2; thioether N-14)	0.1 µM
CC(C)C[C@H]1NC(=O)[C@H](C)N(C)C(=O)[C@H](C(C)C)NC(=O)[C@H](Cc2ccc(-c3ccccc3)cc2)NC(=O)[C@H](C(C)C)NC(=O)[C@H](Cc2c[nH]c3ccccc23)NC(=O)[C@H](CC(=O)O)NC(=O)[C@H](Cc2ccc(O)cc2)NC(=O)[C@H](Cc2ccc(OCC(=O)O)cc2)NC(=O)CSC[C@@H](C(=O)N[C@@H](C)C(N)=O)NC(=O)[C@H]([C@@H](C)O)NC(=O)[C@H](C(C)C)NC(=O)[C@H](CC2CCCCC2)NC(=O)[C@H](CCCNC(=N)N)NC1=O [Compound 1486] ({CH2CO}-Y(Carboxymethyl)YDWV[Bip]V[NMeA][dL]R[Cha]VTCA-NH2; thioether N-14)	0.62 µM
CC(C)C[C@@H]1NC(=O)[C@H](CCN)NC(=O)[C@@H](CC(C)C)NC(=O)[C@H](C)N(C)C(=O)[C@H](CCCNC(=N)N)NC(=O)[C@H](Cc2ccc(-c3ccc(CCC#N)cc3)cc2)NC(=O)[C@H](C(C)C)NC(=O)[C@H](Cc2c[nH]c3ccccc23)NC(=O)[C@H](CC(=O)O)NC(=O)[C@H](Cc2ccc(O)cc2)NC(=O)[C@H](CC(N)=O)NC(=O)CSC[C@@H](C(=O)N[C@@H](C)C(N)=O)NC(=O)[C@H]([C@@H](C)O)NC(=O)[C@H](C(C)C)NC1=O [Compound 1213] ({CH2CO}-NYDWV[X25]R[NMeA][dL][Dab]LVTCA-NH2; thioether N-14)	0.25 µM
